From US12233130B2, “Covalently-modified steroid acid-peptides having enhanced stability and/or biological activity” (DEFENCE THERAPEUTICS INC., priority 2022, dated 2025) come the findings set out here.

Positions of bridges follow the written chain, without caps; N, C: chain ends. Residues, ends and D or L forms follow the SMILES beside them. Chains are numbered I, II in the order given. *: point of attachment. Chenodeoxycholyl = C[C@H](CCC(=O)*)[C@H]1CC[C@H]2[C@@H]3[C@H](O)C[C@@H]4C[C@H](O)CC[C@]4(C)[C@H]3CC[C@]12C; Cholyl = C[C@H](CCC(=O)*)[C@H]1CC[C@H]2[C@@H]3[C@H](O)C[C@@H]4C[C@H](O)CC[C@]4(C)[C@H]3C[C@H](O)[C@]12C

For one series, the system named is EL4 lymphoma cells. The experiment in a line: Apoptosis analysis by flow cytometry (Annexin-V/PI). The series is classed as cell-based. How it is done:
(§1) Apoptosis analysis was conducted by flow-cytometry. Briefly, target cells were first treated then washed. Treated cells were then re-suspended in Annexin-V staining buffer prior to staining with Annexin-V and propidium iodine (PI). Fifteen minutes later, cells were washed prior to analysis using BD FACS™ Diva on CANTOII™.

Another series concerns macrophages. The experiment in a line: Apoptosis analysis by flow cytometry on normal cells. Conditions: 190 μM. It counts as cell-based. How it is done: as §1
For series [1], the system named is mesenchymal stem cells (MSCs). The series is described as above. The series is classed as cell-based. To be noted: 190 μM. How it is done: as §1
The subject of series [2] is bone marrow-derived dendritic cells (DCs). The description is as above. It counts as cell-based, mouse. To be noted: 190 μM. How it is done:
Mouse bone marrow derived DCs (BMDCs) were generated by flushing the whole marrow from mouse femurs using RPMI™ 1640 supplemented with 10% fetal bovine serum (FBS), 50 U/mL Penicillin-Streptomycin, 2 mM L-glutamine, 10 mM HEPES, 1% MEM Non-essential Amino Acids, 1 mM Sodium Pyruvate, 0.5 mM β-mercaptoethanol. Following red blood cell lysis, cells were then cultured in media supplemented with 50 ng/ml murine recombinant GM-CSF. The media was changed on days 2, 4, 6 and 8. On day 9, the media was replaced to include recombinant murine GM-CSF and LPS from Escherichia coli 0111 (1 ng/mL) to stimulate DC maturation. Mature DCs were assessed by flow cytometry for their surface expression of CD3, CD19, NK1.1, CD11c, CD80, CD86, and I-A^b.
as §1

The test system of another series is EL4 cells. The experiment in a line: Endosomal escape: apoptosis assay with exogenous cytochrome C. The series is classed as cell-based. To be noted: cytochrome C alone. How it is done: Endosomal leakage was assessed using two different approaches; the first strategy utilizes the FRET sensor CCF4-AM, a β-lactamase substrate. Briefly, EL4 cells were treated with 1 μM CCF4-AM for 1 h followed by the addition of 10 mg/ml of β-lactamase in the presence or absence of CA-C-SV40 (at concentration of 190 μM) for 3 h at 37° ° C. The cells were then washed, and fresh media added for an incubation period of 16 h at 37° C. The loss of FRET signal between the coumarin (donor) and fluorescein (acceptor) fluorophores was quantified by flow cytometry. For the apoptosis assay, 10^5 EL4 cells were first supplemented with 10 mg/ml of exogenous rCyt-C for 6 h at 37° C. in the presence or absence of CA-C-SV40 (at a concentration of 190 μM). Once the incubation period completed, the cells were washed with ice cold PBS, then stained for Annexin-V according to manufacturer's instructions prior to analysis using BD FACS Diva on CANTOII.
Cytochrome C is a protein that is normally entrapped in the mitochondria but can be released upon intrinsic signaling known to trigger apoptosis. An experiment was designed where recombinant cytochrome C was added to EL4 cells either alone or in combination with CA-C-SV40 ([…]) (FIG. 3A).

In series [3] the test system is 4T1, EL4, CT-26, B16 and E0771 tumor cell lines. The experiment in a line: Cell death by flow cytometry on five tumor cell lines. It counts as cell-based. To be noted: 95 and 190 μM. How it is done: as §1
Series [4] in a line: Stability testing (impurities by HPLC). The series is classed as physicochemical. To be noted: dimer vs monomer. The source says: GMP synthesis of the CDCA-C-SV40 monomer yielded a white powder and the results of initial stability testing is summarized below:
As shown above, two main impurities were detected by HPLC relating to the reactivity of the free thiol group of the CDCA-C-SV40 monomer, namely impurities resulting from oxidation of the thiol group (Impurity A) and the formation an intermolecular disulfide bond via the thiol groups of two CDCA-C-SV40 monomers, producing a (CDCA-C-SV40)2 dimer (Impurity B).
To attempt to improve stability, the synthesis protocol of CDCA-C-SV40 was modified to produce the conjugate directly in its dimerized form (Impurity B). […] At 25° C., total impurities rose only slightly from 1.6% at Day 0 to 2.1% after 3 months. At 40° C., total impurities rose from 1.6% at Day 0 to 1.7% after 5 days, 2.4% after 10 days, and to 3.7% after 30 days.

In series [5] the test system is EL4 lymphoma, B16 melanoma, E0771 breast cancer, CT-26 colon carcinoma, 4T1 breast cancer, MBA-MD-468, H460 and A549 lung cancer cells. The experiment in a line: Cytotoxicity screen of bile acid-SV40 conjugates (Annexin-V) on eight cancer cell lines. The series is classed as cell-based. To be noted: 190 μM, all eight tumor cell lines tested. How it is done:
Annexin-V staining percentage after treatment with different bile acid-SV40 conjugates (190 μM) is shown relative to live cancer cells (i.e., PBS treated cancer cells) by flow cytometry. Cancer cell lines tested were EL4 lymphoma, B16 melanoma, E0771 breast cancer, CT-26 colon carcinoma, 4T1 breast cancer, MBA-MD-468 triple-negative breast cancer, human H460 lung cancer, and human A549 lung cancer. […] SV40 alone was also tested as a negative control.
as §1

The next series concerns EL4 lymphoma. The experiment in a line: EL4 tumor model in vivo (tumor growth, survival). Also on record: species or system mice. Conditions: highest tested dose (190 μM), every 48 h, 5 injections. As for the experimental part:
Female C57BL/6 mice (n=10/group) received a SC injection of 5×10^5 EL4 cells at Day 0. […] For all depletion studies, antibodies were injected via the intraperitoneal route at days 0, 3 and 6 at a concentration of 200 μg/injection. Tumor size and animal survival for all of the above listed in vivo studies was followed thereafter using a digital caliber until reaching endpoints (ulceration or a tumor volume ≥1000 mm^3).

Take `CC(C)[C@H](NC(=O)[C@H](CCCCN)NC(=O)[C@H](CCCNC(=N)N)NC(=O)[C@H](CCCCN)NC(=O)[C@H](CCCCN)NC(=O)[C@H](CCCCN)NC(=O)[C@@H]1CCCN1C(=O)CNC(=O)[C@H](Cc1ccc(O)cc1)NC(=O)CNC(=O)[C@H](CS)NC(=O)CC[C@@H](C)[C@H]1CC[C@H]2[C@@H]3[C@H](O)C[C@@H]4C[C@H](O)CC[C@]4(C)[C@H]3C[C@H](O)[C@]12C)C(=O)NCC(=O)NCC(=O)O` [CA-C-SV40] (Cholyl-CGYGPKKKRKVGG-OH): the “cytotoxicity of cholic acid-NLS conjugates” value with EL4 lymphoma cells (190 μM, Annexin-V staining) is given as “notably higher than that of CA-C-GWG-SV40”. Besides, the “apoptosis in normal or healthy cells” value (in the series with macrophages; in series [1]; in [2]) was “induce apoptosis” in each case.
Regarding “cytochrome C: recombinant cytochrome C added to EL4 cells as cargo”, the cell death result with EL4 cells was “did not trigger cell death”.
For the compound `CC(C)[C@H](NC(=O)[C@H](CCCCN)NC(=O)[C@H](CCCNC(=N)N)NC(=O)[C@H](CCCCN)NC(=O)[C@H](CCCCN)NC(=O)[C@H](CCCCN)NC(=O)[C@@H]1CCCN1C(=O)CNC(=O)[C@H](Cc1ccc(O)cc1)NC(=O)CNC(=O)[C@H](CSSC[C@H](NC(=O)CC[C@@H](C)[C@H]1CC[C@H]2[C@@H]3[C@H](O)C[C@@H]4C[C@H](O)CC[C@]4(C)[C@H]3CC[C@]12C)C(=O)NCC(=O)N[C@@H](Cc1ccc(O)cc1)C(=O)NCC(=O)N1CCC[C@H]1C(=O)N[C@@H](CCCCN)C(=O)N[C@@H](CCCCN)C(=O)N[C@@H](CCCCN)C(=O)N[C@@H](CCCNC(=N)N)C(=O)N[C@@H](CCCCN)C(=O)N[C@H](C(=O)NCC(=O)NCC(=O)O)C(C)C)NC(=O)CC[C@@H](C)[C@H]1CC[C@H]2[C@@H]3[C@H](O)C[C@@H]4C[C@H](O)CC[C@]4(C)[C@H]3CC[C@]12C)C(=O)NCC(=O)NCC(=O)O` [(CDCA-C-SV40)2] (I: Chenodeoxycholyl-CGYGPKKKRKVGG-OH / II: Chenodeoxycholyl-CGYGPKKKRKVGG-OH; disulfide I:1-II:1), the cytotoxicity entry in series [3] was “potent cytotoxicity”. For the same compound, the “stability relative to corresponding monomer” value in series [4] is recorded as “markedly higher stability”.
As for `CC(C)[C@H](NC(=O)[C@H](CCCCN)NC(=O)[C@H](CCCNC(=N)N)NC(=O)[C@H](CCCCN)NC(=O)[C@H](CCCCN)NC(=O)[C@H](CCCCN)NC(=O)[C@@H]1CCCN1C(=O)CNC(=O)[C@H](Cc1ccc(O)cc1)NC(=O)CNC(=O)[C@H](CS)NC(=O)CC[C@@H](C)[C@H]1CC[C@H]2[C@@H]3[C@H](O)C[C@@H]4C[C@H](O)CC[C@]4(C)[C@H]3CC[C@]12C)C(=O)NCC(=O)NCC(=O)O` [CDCA-C-SV40] (Chenodeoxycholyl-CGYGPKKKRKVGG-OH), in [5], the cytotoxic activity was 100%.
On to `CC(=O)N[C@@H](CS)C(=O)O` [NAC, N-acetylcysteine], for which the “rescue from CA-C-SV40-triggered cell death” value with EL4 lymphoma cells (CA-C-SV40 at higher doses (IC100)) is on record as “incomplete but significant blockade”.
On to `CSCC[C@H](NC(=O)[C@H](CS)NC(=O)CC[C@@H](C)[C@H]1CC[C@H]2[C@@H]3[C@H](O)C[C@@H]4C[C@H](O)CC[C@]4(C)[C@H]3C[C@H](O)[C@]12C)C(=O)NCC(=O)N[C@@H](CCCNC(=N)N)C(=O)N[C@H](C(=O)N[C@@H](CCCNC(=N)N)C(=O)N[C@H](C(=O)N[C@@H](CCCCN)C(=O)N[C@H](C(=O)N[C@H](C(=O)N[C@@H](CCCCN)C(=O)N[C@@H](CCCCN)C(=O)N[C@@H](C)C(=O)N[C@@H](C)C(=O)NCC(=O)NCC(=O)O)C(C)C)[C@@H](C)O)[C@@H](C)O)C(C)C` [CA-C-NLS1 RPS17] (Cholyl-CMGRVRTKTVKKAAGG-OH; N-terminus and C-terminus assumed), for which the tumor growth result in the series on EL4 lymphoma is “significantly delayed tumor growth”.
With “SV40 NLS: nuclear localization signal from SV40 large T-antigen (SEQ ID NO: 2), tested alone as negative control”, in the series on EL4 lymphoma cells (separately, at any of the concentrations tested), the cytotoxic activity entry was “did not exhibit any cytotoxic activity”.
On to `CC[C@H](C)[C@H](NC(=O)[C@H](CCCNC(=N)N)NC(=O)[C@H](CCCCN)NC(=O)[C@H](CCSC)NC(=O)[C@H](CC(C)C)NC(=O)[C@H](Cc1c[nH]cn1)NC(=O)[C@@H](NC(=O)[C@@H](NC(=O)[C@H](Cc1ccc(O)cc1)NC(=O)CNC(=O)[C@H](C)NC(=O)[C@@H](NC(=O)[C@H](CCCCN)NC(=O)[C@H](CC(N)=O)NC(=O)[C@H](CCCNC(=N)N)NC(=O)[C@H](CC(C)C)NC(=O)[C@H](CCCCN)NC(=O)[C@H](CCCCN)NC(=O)[C@H](CO)NC(=O)[C@H](CS)NC(=O)CC[C@@H](C)[C@H]1CC[C@H]2[C@@H]3[C@H](O)C[C@@H]4C[C@H](O)CC[C@]4(C)[C@H]3C[C@H](O)[C@]12C)[C@@H](C)CC)C(C)C)[C@@H](C)O)C(=O)O` [CA-C-NLS3 RPS17] (Cholyl-CSKKLRNKIAGYVTHLMKRI-OH; N-terminus and C-terminus assumed), for which, in the series with EL4 lymphoma, the tumor growth result is given as “significantly delayed tumor growth”.
